Values quoted from earlier work, collected in patent publication US8343966B2, “Organic compounds” (Novartis AG, priority 2008, dated 2013).

What was measured:
[1] = tested on: dimethylnitrosamine induced liver fibrosis; details: cited from earlier work
bleomycin-treated rats = details: cited from earlier work
[2] = given therapeutically to rat, 3 weeks treatment

Molecule	side effects ([1]; during the 3 weeks treatment)	inhibition of extracellular matrix deposition [1, 2]	prevented death rate [1, 2]	lung fibrosis (bleomycin-treated rats)	number of macrophages and neutrophils in bronchoalveolar lavage (bleomycin-treated rats)
c1ccc(-c2cc(-c3cn[nH]c3-c3ccccn3)ccn2)cc1 [GW6604]	no obvious side effects	60%	40%		
Follistatin: an antagonist of activin signalling (protein, UniProt P19883 30-344, looked up) Follistatin: GNCWLRQAKNGRCQVLYKTELSKEECCSTGRLSTSWTEEDVNDNTLFKWMIFNGGAPNCIPCKETCENVDCGPGKKCRMNKKNKPRCVCAPDCSNITWKGPVCGLDGKTYRNECALLKARCKEQPELEVQYQGRCKKTCRDVFCPGSSTCVVDQTNNAYCVTCNRICPEPASSEQYLCGNDGVTYSSACHLRKATCLLGRSIGLAYEGKCIKAKSCEDIQCTGGKKCLWDFKVGRGRCSLCDELCPDSKSDEPVCASDNATYASECAMKEAACSSGVLLEVKHSGSCNSISEDTEEEEEDEDQDYSFPISSILEW				attenuated	significantly reduced
